The record followed here is the OligoGym collection.

After the bases stand the sugars from the 5' end (letter, count) and the backbone: PS all phosphorothioate, else s phosphorothioate and o phosphodiester by linkage. Methylation of C is not given here. e = 2'-O-(2-methoxyethyl) (MOE); k = constrained ethyl (cEt); d = 2'-deoxy (DNA); m = 2'-O-methyl

The series has as its target HSD17B13. To be noted: ASO, HepaRG.

Consider CAGACTTCTTACGACT (sugars k3 d10 k3, PS), for which the target mRNA inhibition (1 µM) was 33%. As for ACCGTTTTGGGCTAAT (sugars k3 d10 k3, PS), the target mRNA inhibition was determined as 0% (0.02 µM); 0% (0.078 µM); 45% (0.313 µM); 78% (1 µM); 81% (1.25 µM); 95% (5 µM). In turn, TGTTAGGACCCAGTCT (sugars k3 d10 k3, PS) yielded a target mRNA inhibition (1 µM) of 51%.

GTACTATAGTATTTAC (sugars k3 d10 k3, PS) registered a target mRNA inhibition (1 µM) of 27%. Still for that read-out and setting: the value for GTCAAAAACCGTCAAA (sugars k3 d10 k3, PS) was 39%; that for TAGTATTTGGGTGTTC (sugars k3 d10 k3, PS) was 27%.

As for AAAGTTTGTTAGAGTG (sugars k3 d10 k3, PS), the target mRNA inhibition reads like this: (0.02 µM) 0%; (0.078 µM) 6%; (0.313 µM) 0%; (1 µM) 75%; (1.25 µM) 55%; (5 µM) 78%. For the setting “1 µM”, GGCTACTTTCAAACCT (sugars k3 d10 k3, PS) returned a target mRNA inhibition of 54%. Still for that read-out and setting: then GCTGAGAAGATCGGCT (sugars k3 d10 k3, PS), with 10%; and GATACACCAATGCAGT (sugars k3 d10 k3, PS), with 73%; and AATAGCCATGTAGCTA (sugars k3 d10 k3, PS), with 28%.

CATTATTCACCACGAT (sugars k3 d10 k3, PS): the target mRNA inhibition (1 µM) stood at 33%. For TCCCAAGGCCTGAAGT (sugars k3 d10 k3, PS), the target mRNA inhibition (1 µM) was found to be 43%. Sequence GCTGTACAGTAGGCAG (sugars k3 d10 k3, PS) had a target mRNA inhibition (1 µM) of 66%. The same measure, in the same setting: then TTAAGCAGAATTGTGA (sugars k3 d10 k3, PS), with 7%. The same measure, in the same setting: then CACGATTGTTACATCA (sugars k3 d10 k3, PS), with 37%; and ACCAGAATCCATTCTA (sugars k3 d10 k3, PS), with 60%; and CATAACTACTTCAGTT (sugars k3 d10 k3, PS), with 3%. Same read-out and setting: then ATTGTTTAGCTGATAG (sugars k3 d10 k3, PS), with 61%; and AATCCCAACCAAACTT (sugars k3 d10 k3, PS), with 23%. For CAGTAGATTTGGTAGA (sugars k3 d10 k3, PS), the target mRNA inhibition (1 µM) was determined as 49%. On to “AGTCUTAAACCTTCCC (sugars k3 d1 m1 d8 k3, PS)”, for which the target mRNA inhibition (1 µM) worked out at 52%. On the same count and under the same terms, then ATTCACCACGATTGTT (sugars k3 d10 k3, PS), with 0%. On the same count and under the same terms, then “CTTATGTAATAGCCAG (sugars k2 d10 k3 e1, PS)”, with 70%. For the sequence “CAGAUTGGAATGCTAC (sugars k3 d1 m1 d8 k3, PS)”, the target mRNA inhibition reads like this: (0.02 µM) 7%; (0.078 µM) 25%; (0.313 µM) 42%; (1 µM) 70%; (1.25 µM) 56%; (5 µM) 82%. In turn, GCCTAAACAAACACTA (sugars k3 d10 k3, PS) showed a target mRNA inhibition (1 µM) of 37%.

TGAGAAGATCGGCTGG (sugars k3 d10 k3, PS) had a target mRNA inhibition (1 µM) of 37%. Under “1 µM”, CCAAAAATCAGCCACT (sugars k3 d10 k3, PS) returned a target mRNA inhibition of 0%. On the same count and under the same terms, the value for “GTCTUAAACCTTCCCT (sugars k3 d1 m1 d8 k3, PS)” was 35%.

Consider TGACAATGGTTGATAG (sugars k3 d10 k3, PS), for which the target mRNA inhibition (1 µM) worked out at 16%.

For “ATCTTAAGATACCCAG (sugars kkdddddddddkekek, PS)”, under “1 µM”, the target mRNA inhibition stood at 45%. The same measure, in the same setting: the value for GCTACTTGAACAGTCT (sugars k3 d10 k3, PS) was 66%. In turn, TGCTAAGTAGTAATTC (sugars k3 d10 k3, PS) came in with a target mRNA inhibition (1 µM) of 32%. Sequence “GTGGCATGGCTACAGA (sugars k3 d9 k3 e1, PS)” returned a target mRNA inhibition (1 µM) of 38%.

For the sequence CTCCGTGTAGTTTGGT (sugars k3 d10 k3, PS), the target mRNA inhibition (1 µM) is 28%.

As to CACATAGCTAACTCAG (sugars k3 d10 k3, PS), the target mRNA inhibition (1 µM) was found to be 42%. On the same count and under the same terms, then GTCCTAGGATGTTGAC (sugars k3 d10 k3, PS), with 1%; and GTATTAAGACAGTTGA (sugars k3 d10 k3, PS), with 45%; and AGATTGGAATGCTACT (sugars k3 d10 k3, PS), with 63%. Same read-out and setting: the value for GGGAAAAAGTGTGTTC (sugars k3 d10 k3, PS) was 20%.

As for ACAGATTGGAATGCTA (sugars k3 d10 k3, PS), the target mRNA inhibition (1 µM) is 50%. Still for that read-out and setting: then ACCAACTATGTAATAG (sugars k3 d10 k3, PS), with 47%; and AACTCCGTTATAAGTT (sugars k3 d10 k3, PS), with 11%. On to AGTATGACAACTGGAG (sugars k3 d10 k3, PS), for which the target mRNA inhibition (1 µM) is 15%. The same measure, in the same setting: then TACATTAGCAAGCTAA (sugars k3 d10 k3, PS), with 29%; and CCATGGATCTAGAACA (sugars k3 d10 k3, PS), with 15%.

The sequence AGAAATCTAAGAACCC (sugars k3 d10 k3, PS) had a target mRNA inhibition (1 µM) of 25%. With GTATAAATGGCAATTC (sugars k3 d10 k3, PS), the target mRNA inhibition (1 µM) is 56%.

Take AGTAATTGCTATAGTA (sugars k3 d10 k3, PS): the target mRNA inhibition (1 µM) was determined as 48%.

For the setting “1 µM”, “GAAGUTAGTATAGTTA (sugars k3 d1 m1 d8 k3, PS)” yielded a target mRNA inhibition of 43%. On the same count and under the same terms, the value for “GGTGGTAACGGTGATC (sugars k3 d9 k3 e1, PS)” was 47%; that for “TGTCTAAACATCTCTG (sugars kkdddddddddkekek, PS)” was 59%.

Regarding TATATGAGGTCTGTAT (sugars k3 d10 k3, PS), the target mRNA inhibition (1 µM) came to 42%.

Where the note is “1 µM”, “GTTATTCTCTTGACAA (sugars kkdddddddddkekek, PS)” gave a target mRNA inhibition of 27%. Same read-out and setting: then TTAGTATAGTTATCTT (sugars k3 d10 k3, PS), with 37%; and “TCTAAACATCTCTGGG (sugars k3 d1 m1 d8 k3, PS)”, with 36%.

In the case of ATCTCACAAGGGAAAT (sugars k3 d10 k3, PS), the target mRNA inhibition (1 µM) came out at 73%. On the same count and under the same terms, the value for “CTTTTTATAGACTGGG (sugars kkdddddddddkekek, PS)” was 37%; that for GTAGCTTTTGTCCACC (sugars k3 d10 k3, PS) was 63%. On the same count and under the same terms, the value for GATACTATTCTCCAAC (sugars k3 d10 k3, PS) was 44%; that for “CTCAGGCTGTAAGAGT (sugars k3 d1 m1 d8 k3, PS)” was 46%. On the same count and under the same terms, then ATTGATATACGATGGA (sugars k3 d10 k3, PS), with 31%; and CTAGGAAGTGATCCAT (sugars k3 d10 k3, PS), with 66%; and CAAGTAGGAGTAGATG (sugars k3 d10 k3, PS), with 5%. “AAACATCTCTGGGACC (sugars kkdddddddddkekek, PS)” had a target mRNA inhibition (1 µM) of 36%.

Consider “GAGACATGAGGTTTTG (sugars k3 d1 m1 d8 k3, PS)”, for which the target mRNA inhibition (1 µM) is 61%.

In the case of “GAGACATGAGGTTTTG (sugars k3 d9 k3 e1, PS)”, the target mRNA inhibition (1 µM) is 61%.

As for GTTTCCTCCACACCGC (sugars k3 d10 k3, PS), the target mRNA inhibition (1 µM) stood at 45%. For the sequence TTTAGTTAGAATAGTC (sugars k3 d10 k3, PS), the target mRNA inhibition (1 µM) was found to be 15%. As for TAATGAATCATGATTG (sugars k3 d10 k3, PS), where the note is “1 µM”, the target mRNA inhibition amounted to 2%. Take “AGTTGCACCGTTTTGG (sugars k3 d1 m1 d8 k3, PS)”: the target mRNA inhibition (1 µM) was 38%. Still for that read-out and setting: the value for “TGGCATGGCTACAGAT (sugars kkdddddddddkekek, PS)” was 58%; that for CATAACTTCATAGTGG (sugars k3 d10 k3, PS) was 31%. The same measure, in the same setting: the value for “GTGTUCTTGTTGATAT (sugars k3 d1 m1 d8 k3, PS)” was 52%. Sequence CCTACCAAGAGGGTTT (sugars k3 d10 k3, PS) had a target mRNA inhibition (1 µM) of 34%.

“CTTATGTAATAGCCAG (sugars kkdddddddddkekek, PS)” came in with a target mRNA inhibition (1 µM) of 61%. Same read-out and setting: the value for CTGGTAAAGGTAAGGG (sugars k3 d10 k3, PS) was 58%; that for ATCTGTCTCCAATACA (sugars k3 d10 k3, PS) was 55%.

The sequence TAAATTACTCCGTTCT (sugars k3 d10 k3, PS) displayed a target mRNA inhibition (1 µM) of 36%. Still for that read-out and setting: the value for CTACAGAGGAGTTTGC (sugars k3 d10 k3, PS) was 27%. On the same count and under the same terms, then GTATGGTAAGCCCCAT (sugars k3 d10 k3, PS), with 36%. Same read-out and setting: the value for CCTATGCAAATTCATA (sugars k3 d10 k3, PS) was 34%; that for ATTATGAGGATCTGGA (sugars k3 d10 k3, PS) was 49%; that for GTAAGGAGTAGTGGAG (sugars k3 d10 k3, PS) was 37%.

For TAGAATAGTCTTCAGC (sugars k3 d10 k3, PS), the target mRNA inhibition worked out at 0% (0.02 µM); 0% (0.078 µM); 16% (0.313 µM); 70% (1 µM); 52% (1.25 µM); 77% (5 µM). Take TGTTACATCACCCACT (sugars k3 d10 k3, PS): for the setting “1 µM”, the target mRNA inhibition was 35%.
